Data taken from PMC6993756, “Novel Anticancer Fused Pyrazole Derivatives as EGFR and VEGFR-2 Dual TK Inhibitors” (Frontiers in Chemistry, 2020).
Where two headings read alike, the source gives them in different places.

How the values were obtained:
[1] = system: HEPG2 human cancer cell line; assay: MTT in vitro anticancer activity against HEPG2 cell line; assay type: cell-based; conditions: for IC50: Homo sapiens, read-out: IC50 HEPG2; for fold higher activity than erlotinib, HEPG2: versus erlotinib (10.6 μM)
Procedure: The MTT method of monitoring in vitro cytotoxicity was used with multiwell plates. The stock concentration of the entire synthesized compounds in DMSO was 10 mM, and this was used to prepare the working dilution. The final DMSO concentration used in the experiments was ≤ 0.5% as the working concentration. Human liver cancer cell lines (HepG2) were cultured according to the manufacturer's instructions. […] The cell viability was determined in each experiment using MTT (3-(4, 5-dimethylthiazol-2-yl)-2, 5-diphenyltetrazolium bromide) colorimetric assay. The optical density was measured with a microplate reader at 540 nm. The experiment was conducted in triplicate. Data were calculated as percent of cell viability.

EGFR = EGFR (Homo sapiens, UniProt P00533); assay: EGFR kinase inhibitory assay (BPS Bioscience EGFR kinase assay kit)
Chain of EGFR (P00533 25-1210): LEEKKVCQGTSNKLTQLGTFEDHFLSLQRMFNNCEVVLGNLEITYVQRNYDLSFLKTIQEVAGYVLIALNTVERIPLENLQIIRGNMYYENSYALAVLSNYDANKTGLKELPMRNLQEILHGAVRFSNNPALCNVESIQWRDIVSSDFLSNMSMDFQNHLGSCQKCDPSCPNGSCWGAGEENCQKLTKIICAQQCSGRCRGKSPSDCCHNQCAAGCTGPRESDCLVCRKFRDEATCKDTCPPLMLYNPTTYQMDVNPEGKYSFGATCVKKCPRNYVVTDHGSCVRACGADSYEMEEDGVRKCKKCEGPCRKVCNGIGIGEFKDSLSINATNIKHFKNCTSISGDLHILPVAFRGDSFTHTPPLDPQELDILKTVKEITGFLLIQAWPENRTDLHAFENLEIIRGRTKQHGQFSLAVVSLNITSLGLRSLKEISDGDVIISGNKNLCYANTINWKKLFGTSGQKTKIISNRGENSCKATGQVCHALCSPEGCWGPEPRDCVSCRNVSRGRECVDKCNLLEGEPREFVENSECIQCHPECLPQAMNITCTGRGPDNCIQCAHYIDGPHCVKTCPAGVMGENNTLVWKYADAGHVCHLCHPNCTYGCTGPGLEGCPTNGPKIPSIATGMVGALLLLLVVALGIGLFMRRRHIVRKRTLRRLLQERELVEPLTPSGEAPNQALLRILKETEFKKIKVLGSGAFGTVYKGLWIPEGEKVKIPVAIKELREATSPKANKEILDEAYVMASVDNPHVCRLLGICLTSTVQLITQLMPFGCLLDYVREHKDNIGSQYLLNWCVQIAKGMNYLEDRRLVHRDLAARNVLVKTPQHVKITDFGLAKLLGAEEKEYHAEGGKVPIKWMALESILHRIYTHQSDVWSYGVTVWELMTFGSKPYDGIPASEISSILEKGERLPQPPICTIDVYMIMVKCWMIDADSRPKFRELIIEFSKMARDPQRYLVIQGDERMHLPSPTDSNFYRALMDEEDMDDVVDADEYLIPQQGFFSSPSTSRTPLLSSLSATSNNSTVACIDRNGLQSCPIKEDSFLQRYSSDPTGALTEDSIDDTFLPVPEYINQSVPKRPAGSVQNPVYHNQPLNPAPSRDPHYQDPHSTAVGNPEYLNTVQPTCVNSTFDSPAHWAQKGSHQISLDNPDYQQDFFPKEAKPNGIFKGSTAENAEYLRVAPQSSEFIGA

VEGFR-2 = VEGFR-2 (Homo sapiens, UniProt P35968); assay: VEGFR-2 kinase inhibitory assay (HTScan VEGF Receptor 2 kinase assay kit)
Chain of VEGFR-2 (P35968 20-1356): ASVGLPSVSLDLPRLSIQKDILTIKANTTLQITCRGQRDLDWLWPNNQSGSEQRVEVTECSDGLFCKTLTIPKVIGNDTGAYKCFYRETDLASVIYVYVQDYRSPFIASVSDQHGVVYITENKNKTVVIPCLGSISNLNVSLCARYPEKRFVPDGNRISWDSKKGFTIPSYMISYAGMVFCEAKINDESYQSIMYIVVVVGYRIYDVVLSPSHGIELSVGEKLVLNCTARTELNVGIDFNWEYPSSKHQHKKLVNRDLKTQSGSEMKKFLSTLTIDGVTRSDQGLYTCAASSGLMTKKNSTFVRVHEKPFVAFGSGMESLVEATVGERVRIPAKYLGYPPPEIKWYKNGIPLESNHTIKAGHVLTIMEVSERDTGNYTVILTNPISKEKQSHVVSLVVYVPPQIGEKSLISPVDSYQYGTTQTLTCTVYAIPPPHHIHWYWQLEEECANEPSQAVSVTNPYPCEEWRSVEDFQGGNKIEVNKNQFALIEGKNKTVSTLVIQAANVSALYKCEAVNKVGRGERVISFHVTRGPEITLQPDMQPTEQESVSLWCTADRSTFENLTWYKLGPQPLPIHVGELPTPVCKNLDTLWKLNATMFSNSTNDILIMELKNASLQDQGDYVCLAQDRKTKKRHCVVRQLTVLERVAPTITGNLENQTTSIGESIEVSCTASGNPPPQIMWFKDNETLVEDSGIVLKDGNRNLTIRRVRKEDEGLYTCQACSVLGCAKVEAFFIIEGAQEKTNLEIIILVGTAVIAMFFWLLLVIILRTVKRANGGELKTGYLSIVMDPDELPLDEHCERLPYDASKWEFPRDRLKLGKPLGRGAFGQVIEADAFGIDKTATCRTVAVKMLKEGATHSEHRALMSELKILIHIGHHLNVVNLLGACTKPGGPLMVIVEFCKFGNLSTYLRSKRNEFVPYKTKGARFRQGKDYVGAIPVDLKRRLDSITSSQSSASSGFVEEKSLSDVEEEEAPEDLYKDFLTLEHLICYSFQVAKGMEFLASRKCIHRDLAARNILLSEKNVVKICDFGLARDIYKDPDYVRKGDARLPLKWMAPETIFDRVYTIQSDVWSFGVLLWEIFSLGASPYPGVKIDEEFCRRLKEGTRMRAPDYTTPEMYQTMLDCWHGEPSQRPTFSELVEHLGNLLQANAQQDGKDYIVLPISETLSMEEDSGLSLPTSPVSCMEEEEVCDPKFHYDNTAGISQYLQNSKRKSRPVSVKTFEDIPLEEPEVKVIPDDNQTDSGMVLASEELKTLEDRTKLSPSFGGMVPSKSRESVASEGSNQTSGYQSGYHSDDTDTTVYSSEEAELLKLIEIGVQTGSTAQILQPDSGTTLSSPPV

[2] = HepG2, MTT, 24 h treatment, mean of three experiments

Compound | IC50 [1, 2] [nM] | melting point [°C] | IC50 (EGFR) [nM] | IC50 (VEGFR-2) [nM] | fold higher activity than erlotinib, HEPG2 [1] [fold] | IC50 ([1]; HepG2, 24 h) [nM]
Cc1n[nH]c2c1C(c1ccccc1Br)C(C#N)=C(N)O2 (centres unmarked) [Compound 1, 6-amino-4-(2-bromophenyl)-3-methyl-1,4-dihydropyrano[2,3-c]pyrazole-5-carbonitrile] | 420 |  | 140 | 11400 | ~10 | 
C#Cc1cccc(Nc2ncnc3cc(OCCOC)c(OCCOC)cc23)c1 [Erlotinib, erlotinib, reference compound] |  |  |  |  |  | 10600
Cc1n[nH]c2c1C(c1ccccc1Br)c1c(N)ncnc1O2 (centres unmarked) [Compound 6, 4-(2-Bromophenyl)-3-methyl-1,4-dihydropyrazolo[4′,3′:5,6]pyrano[2,3-d]pyrimidin-5-amine] | 15700 | 320 | 250 | 1100 |  | 
CC1=NNC2=NNC(c3ccccc3Br)C12 (centres unmarked) [Compound 14, 4-(2-Bromophenyl)-3-methyl-1,3a,4,5-tetrahydropyrazolo[3,4-c]pyrazole] | 6640 | 140 | 110 | 2870 |  | 
Cc1n[nH]c2c1C(c1ccccc1Br)c1c(nc[nH]c1=O)O2 (centres unmarked) [Compound 5, 4-(2-Bromophenyl)-3-methyl-4,6-dihydropyrazolo [4′,3′:5,6]pyrano[2,3-d]pyrimidin-5(1H)-one] | 8710 | 205 | 150 | 1120 |  | 
Cc1ccc(S(=O)(=O)NC2=C(C#N)C(c3ccccc3Br)c3c(C)n[nH]c3O2)cc1 (centres unmarked) [Compound 9, N-(4-(2-Bromophenyl)-5-cyano-3-methyl-1,4-dihydropyrano[2,3-c]pyrazol-6-yl)-4-methyl-benzenesulfonamide] | 2300 | 193 to 195 | 160 | 220 |  | 
CCOC=NC1=C(C#N)C(c2ccccc2Br)c2c(C)n[nH]c2O1 (centres unmarked) [Compound 2, Ethyl(E)-N-(4-(2-bromophenyl)-5-cyano-3-methyl-1,4-dihydropyrano[2,3-cpyrazol-6-yl)formimidate] | 350 | 158 to 160 | 490 | 2120 | ~10 | 
Cc1n[nH]c2c1C(c1ccccc1Br)C(C#N)=C(NC(=O)CC#N)O2 (centres unmarked) [Compound 7, N-(4-(2-Bromophenyl)-5-cyano-3-methyl-1,4-dihydropyrano[2,3-c]pyrazol-6-yl)-2-cyanoacetamide] | 1840 | > 360 | 250 | 1450 |  | 
CC1=NNC2=NC(=S)NC(c3ccccc3Br)C12 (centres unmarked) [Compound 13, 4-(2-Bromophenyl)-3-methyl-1,3a,4,5-tetrahydro-6H-pyrazolo[3,4-d]pyrimidine-6-thione] | 1810 | 170 | 120 | 750 |  | 
Cc1n[nH]c2c1C(c1ccccc1Br)C(C#N)=C(NC(=S)Nc1ccccc1)O2 (centres unmarked) [Compound 8, 1-(4-(2-Bromophenyl)-5-cyano-3-methyl-1,4-dihydropyrano[2,3-c]pyrazol-6-yl)-3-phenylthiourea] | 380 |  | 230 | 460 |  | 

More lines, in order of falling IC50 [1, 2], values ahead:

IC50 [1, 2] [nM] | melting point [°C] | IC50 (EGFR) [nM] | IC50 (VEGFR-2) [nM] | Compound | fold higher activity than erlotinib, HEPG2 [1] [fold] | IC50 ([1]; HepG2, 24 h) [nM]
4070 | 120 to 122 | 60 | 850 | Cc1n[nH]c2c1C(c1ccccc1Br)c1c(ncn(N)c1=N)O2 (centres unmarked) [Compound 3, 4-(2-Bromophenyl)-5-imino-3-methyl-1,4-dihydropyrazolo[4′,3′:5,6]pyrano[2,3-d]pyrimidin-6(5H)-amine] |  | 
1060 |  |  |  | CNC(=O)c1cc(Oc2ccc(NC(=O)Nc3ccc(Cl)c(C(F)(F)F)c3)cc2)ccn1 [Sorafenib, sorafenib, reference compound] |  | 
710 | 205 | 90 | 230 | CC1=NNC2=NC(=O)NC(c3ccccc3Br)C12 (centres unmarked) [Compound 12, 4-(2-bromophenyl)-3-methyl-1,3a, 4,5-tetrahydro-6h-pyrazolo [3,4-d]pyrimidin-6-one] | ~10 | 
630 | 210 | 300 | 270 | CC1=NNC(=O)/C1=C/c1ccccc1Br [Compound 11, (E)-4-(2-Bromobenzylidene)-5-methyl-2,4-dihydro-3H-pyrazol-3-one] | ~10 | 
370 | > 360 | 190 | 370 | Cc1n[nH]c2oc(=O)c(C#N)c(-c3ccccc3Br)c12 [Compound 15, 4-(2-Bromophenyl)-3-methyl-6-oxo-1,6-dihydropyrano[2,3-c]pyrazole-5-carbonitrile] | ~10 | 
310 | 115 | 130 | 360 | Cc1nc2c(c(=O)[nH]1)C(c1ccccc1Br)c1c(C)n[nH]c1O2 (centres unmarked) [Compound 4, 4-(2-Bromophenyl)-3,7-dimethyl-4,6-dihydropyrazolo[4′,3′:5,6]pyrano[2,3-d]pyrimidin-5(1H)-one] | ~10 | 
